Results as given in ChEMBL document CHEMBL5346926, “Optimization of triazolo[4,5-d]pyrimidines towards human CC chemokine receptor 7 (CCR7) antagonists” (Eur J Med Chem, 2023).

Assays:
[1] = target: T1, C-C chemokine receptor type 7 (Homo sapiens, UniProt P32248); experiment: Antagonist activity at CCR7 in human CD4 cells by fluorescence based calcium mobilization assay; assay type: functional, cell-based, CD4+ve Th
T1 sequence (P32248 whole entry): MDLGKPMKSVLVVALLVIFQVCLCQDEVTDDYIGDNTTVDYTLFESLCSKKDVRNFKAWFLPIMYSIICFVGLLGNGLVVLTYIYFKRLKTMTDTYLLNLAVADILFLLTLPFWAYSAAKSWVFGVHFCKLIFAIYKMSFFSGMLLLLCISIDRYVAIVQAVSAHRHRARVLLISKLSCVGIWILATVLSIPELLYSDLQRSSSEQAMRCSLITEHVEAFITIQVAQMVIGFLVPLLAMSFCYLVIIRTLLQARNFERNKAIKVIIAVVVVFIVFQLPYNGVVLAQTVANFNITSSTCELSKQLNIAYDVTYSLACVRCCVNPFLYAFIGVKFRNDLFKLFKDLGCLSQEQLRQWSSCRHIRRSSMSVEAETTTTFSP

[2] = target: T2, C-X-C chemokine receptor type 2 (Homo sapiens, UniProt P25025); experiment: Antagonist activity at CXCR2 in human CD4 cells by fluorescence based calcium mobilization assay; assay type: functional, cell-based, CD4+ve Th
T2 sequence (P25025 whole entry): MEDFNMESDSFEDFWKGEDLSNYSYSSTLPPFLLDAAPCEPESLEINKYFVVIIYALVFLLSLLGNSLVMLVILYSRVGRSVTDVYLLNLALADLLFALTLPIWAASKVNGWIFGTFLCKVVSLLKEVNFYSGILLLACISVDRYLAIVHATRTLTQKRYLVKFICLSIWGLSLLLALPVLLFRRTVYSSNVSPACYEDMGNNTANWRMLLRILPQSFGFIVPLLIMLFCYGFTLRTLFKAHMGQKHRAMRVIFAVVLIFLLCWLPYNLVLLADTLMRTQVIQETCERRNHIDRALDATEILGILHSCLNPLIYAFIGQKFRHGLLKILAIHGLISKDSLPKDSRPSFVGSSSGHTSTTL

[3] = target: T1, C-C chemokine receptor type 7; experiment: Competitive binding affinity to CCR7 in human U87 cells preincubated for 15 mins followed by CCL19 AF647 addition measured after 30 mins by flow cytometric analysis; assay type: cell-based

Structure (SMILES) | IC50 [1] | IC50 [2] | IC50 [3]
C[C@H](CO)Nc1nc(SCc2cccc(F)c2F)nc2sccc12 | > 30 µM | – | –
Cc1ccc([C@H](NC2=NS(=O)(=O)N=C2Nc2ccc(C)c(C(=O)N(C)C)c2O)C(C)(C)C)o1 | – | 6.4 µM | –
CCCNC(=O)CSc1nc(N[C@H](C)CO)c2nn[nH]c2n1 | – | > 30 µM | –
CCCOCCSc1nc(N[C@H](C)CO)c2nn[nH]c2n1 | 29.3 µM | – | –
C[C@H](CO)Nc1nc(SCC2CCCC2)nc2[nH]nnc12 | – | 2.37 µM | –
C[C@H](CO)Nc1nc(SCCC2CCCCC2)nc2[nH]nnc12 | 1.68 µM | – | –
C[C@H](CO)Nc1nc(SC2CCCCC2)nc2[nH]nnc12 | – | > 30 µM | –
CCCC(C)CSc1nc(N[C@H](C)CO)c2nn[nH]c2n1 (stereo not given in full) | 8.49 µM | 2.58 µM | –
C[C@H](CO)Nc1nc(SCc2cccc(F)c2F)nc2ccsc12 | > 30 µM | – | –
CCCCCCSc1nc(N[C@H](C)CO)c2nn[nH]c2n1 | 0.43 µM | – | 1.78 µM
C[C@H](CO)Nc1nc(Sc2ccccc2)nc2[nH]nnc12 | > 30 µM | – | –
C[C@H](CO)Nc1nc(SCCc2ccccc2)nc2[nH]nnc12 | 1.18 µM | – | –
CC(C)CCCCSc1nc(N[C@H](C)CO)c2nn[nH]c2n1 | 5.28 µM | – | –

Continued, values first:

IC50 [1] | IC50 [2] | IC50 [3] | Structure (SMILES)
> 30 µM | – | – | C[C@H](CO)Nc1nc(SCc2cccc(F)c2F)nc2c1nnn2C
> 30 µM | – | – | C[C@H](CO)Nc1nc(SCc2cccc(F)c2F)nc2cnccc12
> 30 µM | – | – | CN(C)c1nc(SCc2cccc(F)c2F)nc2[nH]nnc12
> 30 µM | – | – | C[C@H](CO)Nc1nc(SCc2cccc(F)c2F)nc2cc[nH]c12
> 30 µM | > 30 µM | – | CN(C)CCNc1nc(SCc2cccc(F)c2F)nc2[nH]nnc12
> 30 µM | – | – | C[C@H](CO)Nc1nc(SCc2cccc(F)c2F)nc2c1CNCC2
> 30 µM | – | – | C[C@H](CO)Nc1nc(SCc2cccc(F)c2F)nc2cccnc12
> 30 µM | 11.5 µM | – | CC(C)(C)OC(=O)N1CCN(c2nc(SCc3cccc(F)c3F)nc3[nH]nnc23)CC1
2.29 µM | – | – | CC(C)(CO)Nc1nc(SCc2cccc(F)c2F)nc2[nH]nnc12
8.66 µM | – | – | OCCNc1nc(SCc2cccc(F)c2F)nc2[nH]nnc12
> 30 µM | 2.98 µM | – | Fc1cccc(CSc2nc(NCC3CC3)c3nn[nH]c3n2)c1F
17.2 µM | 8.78 µM | – | COCCNc1nc(SCc2cccc(F)c2F)nc2[nH]nnc12
23.8 µM | – | – | C[C@H](CO)Nc1nc(OCc2cccc(F)c2F)nc2[nH]nnc12
7.14 µM | 2.09 µM | – | C[C@H](CCO)Nc1nc(SCc2cccc(F)c2F)nc2[nH]nnc12
> 30 µM | – | – | C[C@H](CO)Nc1nc(SCc2cccc(F)c2F)nc2nc(N)sc12
– | 1.75 µM | – | C[C@@H](CO)Nc1nc(SCc2cccc(F)c2F)nc2[nH]nnc12
> 30 µM | > 30 µM | – | Fc1cccc(CSc2nc(N3CCNCC3)c3nn[nH]c3n2)c1F
18.6 µM | – | – | OCCCNc1nc(SCc2cccc(F)c2F)nc2[nH]nnc12
5.81 µM | – | – | OCCSc1nc(SCc2cccc(F)c2F)nc2[nH]nnc12
